Data on 14 compounds can be found in PubChem BioAssay (NCI).

Some test systems named below: A549 NSCLC; HCT-116 colon; HOP-62 NSCLC; HOP-92 NSCLC; MOLT-4 leukemia; NCI-H23 lung; NCI-H522 lung; OVCAR-3 ovarian; SK-MEL-2 melanoma; TK-10 renal; SK-MEL-28 melanoma.
Common to all, as to assay: DTP human tumour cell line panel, 48 h

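Results reflect a 48-hour exposure of cells in 96-well plates to compound at five concentrations. TGI marks complete inhibition of growth.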

In general, TGI refers to the concentration giving total growth inhibition. The low end stands for more potent growth arrest, the high end for less potent growth arrest. In the case of `CN1C(=O)C2C(=O)N(Cc3ccccc3)CC(=O)N2c2cccnc21` (stereo not given), the TGI in the experiment with A549 NSCLC, with HCT-116 colon, in the experiment on HOP-62 NSCLC, in the experiment with HOP-92 NSCLC, in the experiment with MOLT-4 leukemia and in the experiment with NCI-H23 lung was greater than 100 µM each time. Moreover, the TGI in the experiment on NCI-H522 lung, with OVCAR-3 ovarian, with SK-MEL-2 melanoma and in the experiment with TK-10 renal was greater than 100 µM in each case.
Turning to `COc1cc(/C=C2/C(=O)N(C(=O)c3ccccc3O)N=C2C)cc(OC)c1OC`, the TGI in the experiment on A549 NSCLC is greater than 100 µM; with HCT-116 colon, greater than 29 µM; in the experiment with HOP-92 NSCLC, greater than 83.9 µM; in the experiment on MOLT-4 leukemia it was greater than 100 µM; in the experiment on NCI-H23 lung it was greater than 21.8 µM; in the experiment on NCI-H522 lung it was 33.4 µM. Moreover, the TGI is 18.7 µM with OVCAR-3 ovarian, greater than 29.4 µM with SK-MEL-2 melanoma, greater than 100 µM in the experiment with SK-MEL-28 melanoma and greater than 100 µM in the experiment with TK-10 renal.
For the compound `c1ccc(C2C3=C(Nc4ncnn42)c2ccccc2C3)cc1` (stereo not given), the TGI in the experiment on A549 NSCLC was greater than 100 µM; in the experiment on HCT-116 colon, greater than 100 µM; with HOP-62 NSCLC it was greater than 100 µM; in the experiment on HOP-92 NSCLC, greater than 100 µM; with MOLT-4 leukemia, greater than 100 µM; in the experiment with NCI-H23 lung, 65.1 µM. Also, the TGI with NCI-H522 lung was 26.5 µM; in the experiment with OVCAR-3 ovarian, 30.3 µM; in the experiment with SK-MEL-2 melanoma, greater than 100 µM; with TK-10 renal, greater than 100 µM.
For the compound `O=C(Nc1ccc(Br)cc1)c1c(-c2ccccc2)c2ccc(O)cc2oc1=O`, the TGI in the experiment on HOP-62 NSCLC, in the experiment with HOP-92 NSCLC, in the experiment on MOLT-4 leukemia, with NCI-H23 lung, with NCI-H522 lung and with OVCAR-3 ovarian was greater than 10 µM throughout. The total growth inhibition concentration (TGI) in the experiment with SK-MEL-2 melanoma, in the experiment with SK-MEL-28 melanoma and in the experiment with TK-10 renal was greater than 10 µM in each case.
Take `Nc1cc(CO)cc(Nc2nc3ccc(Cl)cc3c3[nH]c4ccccc4c23)c1`: the TGI in the experiment on A549 NSCLC stood at 57.3 µM; in the experiment with HCT-116 colon, 25.4 µM; in the experiment on HOP-62 NSCLC, 27.6 µM; in the experiment on HOP-92 NSCLC it was 9.11 µM; in the experiment with MOLT-4 leukemia, 32.2 µM; in the experiment on NCI-H23 lung, 40 µM. In addition, the values for the TGI in the experiment with NCI-H522 lung, with SK-MEL-2 melanoma and in the experiment with TK-10 renal were 12.7 µM, 15 µM and 21.3 µM, respectively.
For the compound `CC(CN1c2ccccc2Sc2ccccc21)N(C)C` (stereo not given), the TGI in the experiment on A549 NSCLC was 35.7 µM; in the experiment with HCT-116 colon, 28.9 µM; with HOP-62 NSCLC, 28.5 µM; with HOP-92 NSCLC, 35.4 µM; in the experiment on MOLT-4 leukemia, 40.7 µM; in the experiment with NCI-H23 lung, 38.2 µM. Also, the TGI in the experiment on NCI-H522 lung was determined as 36.3 µM; in the experiment with OVCAR-3 ovarian, 31.1 µM; in the experiment with SK-MEL-2 melanoma, 34.7 µM; with SK-MEL-28 melanoma, 32.5 µM.
As for `CC(C)(C)c1ccc2c(c1)CNCCNCc1cc(C(C)(C)C)ccc1OCC1(CO2)COc2ccc(C(C)(C)C)cc2CNCCNCc2cc(C(C)(C)C)ccc2OC1`, the TGI stood at 2.99 µM in the experiment with HCT-116 colon; 2.66 µM in the experiment with HOP-62 NSCLC; 2.58 µM with HOP-92 NSCLC; 0.504 µM in the experiment on MOLT-4 leukemia; 2.59 µM in the experiment with NCI-H23 lung; 0.421 µM in the experiment with NCI-H522 lung. The concentration for total growth inhibition (TGI) was determined as 3.12 µM in the experiment with OVCAR-3 ovarian, 2.89 µM in the experiment on SK-MEL-2 melanoma, 3.05 µM in the experiment with SK-MEL-28 melanoma and 3.32 µM in the experiment with TK-10 renal.
Regarding `Cc1ccc(-c2c(C#N)c(-c3ccccc3)n(NS(=O)(=O)c3ccccc3)c(=O)c2C#N)cc1`, the TGI in the experiment on A549 NSCLC was greater than 100 µM; in the experiment with HCT-116 colon it was greater than 100 µM; in the experiment on HOP-62 NSCLC, greater than 100 µM; with HOP-92 NSCLC, greater than 100 µM; in the experiment on MOLT-4 leukemia, 72.6 µM; in the experiment on NCI-H522 lung, greater than 100 µM. The TGI in the experiment with SK-MEL-2 melanoma, in the experiment with SK-MEL-28 melanoma and with TK-10 renal was greater than 100 µM in each case.
Consider `O=C1/C(=C/c2ccccc2)N=C(c2ccccc2)N1n1c(-c2ccccc2)nc2ccccc2c1=O`, for which the TGI with A549 NSCLC, with HCT-116 colon, with HOP-62 NSCLC, in the experiment with HOP-92 NSCLC, with MOLT-4 leukemia and with NCI-H23 lung was greater than 100 µM throughout. The TGI in the experiment on NCI-H522 lung, in the experiment with OVCAR-3 ovarian, with SK-MEL-28 melanoma and with TK-10 renal was greater than 100 µM each time.
Consider `CC(C)(C)C1=C(Br)C(Br)(C(C)(C)C)OP1(=O)c1ccccc1` (stereo not given), for which the TGI in the experiment with A549 NSCLC, with HCT-116 colon, in the experiment on HOP-62 NSCLC, in the experiment with HOP-92 NSCLC, in the experiment with NCI-H23 lung and in the experiment with NCI-H522 lung was greater than 100 µM throughout. Also, the TGI in the experiment with OVCAR-3 ovarian, in the experiment on SK-MEL-2 melanoma, with SK-MEL-28 melanoma and in the experiment with TK-10 renal was greater than 100 µM in each case.
Take `O=C(O)c1c2c(cc3c1CC1(Cc4ccccc4C1)C3)CCC2`: the TGI with A549 NSCLC is greater than 100 µM; in the experiment with HOP-62 NSCLC, greater than 100 µM; in the experiment with HOP-92 NSCLC it was 52.5 µM; with MOLT-4 leukemia, greater than 100 µM; in the experiment with NCI-H23 lung, greater than 100 µM; in the experiment on NCI-H522 lung, greater than 100 µM. Moreover, the TGI in the experiment with OVCAR-3 ovarian, with SK-MEL-28 melanoma and in the experiment with TK-10 renal was greater than 100 µM throughout.
With `COC(=O)C(/C(=N/NC(N)=O)C(=O)Nc1ccc(C)cc1)c1nc2ccc([N+](=O)[O-])cc2[nH]c1=O` (stereo not given), the TGI in the experiment with A549 NSCLC, in the experiment on HCT-116 colon, in the experiment with HOP-62 NSCLC, in the experiment on HOP-92 NSCLC, in the experiment on MOLT-4 leukemia and with NCI-H522 lung was greater than 100 µM in each case. The TGI in the experiment with OVCAR-3 ovarian, in the experiment on SK-MEL-2 melanoma, with SK-MEL-28 melanoma and with TK-10 renal was greater than 100 µM each time.
Take `S=C(N/N=C\C=N/NC(=S)N1CCCCC1)N1CCCCC1`: the TGI was greater than 100 µM in the experiment with A549 NSCLC; greater than 100 µM with HCT-116 colon; greater than 21.1 µM with HOP-62 NSCLC; 45.8 µM in the experiment with HOP-92 NSCLC; greater than 40.1 µM in the experiment on NCI-H23 lung; greater than 100 µM in the experiment with NCI-H522 lung. The figures for the total growth inhibition concentration (TGI) in the experiment with OVCAR-3 ovarian, with SK-MEL-28 melanoma and in the experiment with TK-10 renal were 78.2 µM, greater than 100 µM and greater than 100 µM, respectively.
As to `COc1ccccc1Nc1nc(N)nc(N)c1N=O`, the TGI in the experiment with A549 NSCLC, with HCT-116 colon, in the experiment on HOP-62 NSCLC, in the experiment with HOP-92 NSCLC, in the experiment with MOLT-4 leukemia and with NCI-H23 lung was greater than 100 µM throughout. Besides, the TGI with NCI-H522 lung, in the experiment on SK-MEL-2 melanoma, with SK-MEL-28 melanoma and in the experiment with TK-10 renal was greater than 100 µM in each case.
